Data on two molecules can be found in patent publication US20030069285A1 (Recordati Ireland Limited, priority 2001, published 2003).

One data set has as its system isolated rat aorta. Conditions: in vitro; even after the drug has been removed from the environment of the aortic tissue for 6 hours; cited from earlier work.
Data set [1] can be described thus: Thermogravimetric analysis (TG and TGFTIR). In kind it is physicochemical. Conditions: heated in nitrogen stream at 10° C./min; only CO2 is present. The procedure:
Each sample weighing 2 to 5 mg was placed in an aluminum crucible of an apparatus PERKIN ELMER TGS-2 Thermogravimetric System (Perkin-Elmer International, Inc., Rotkreuz, Switzerland) and heated in nitrogen stream at a rate of 10° C./min. The thermogravimetric analysis together with an IR analysis in Fourier transform was carried out according to the following operating modes. Each sample weighing 2 to 5 mg was placed in an aluminum crucible of an apparatus Netzsch Thermomicrobalance TG209 (Netzsch Gerätebau, Seib, Germany) coupled with a spectrometer in Fourier transform BRUKER FTIR Vector 22 (Spectrospin, Fällanden, Switzerland) and heated in nitrogen stream at a rate of 10° C./min.

`COC(=O)C1=C(C)NC(C)=C(C(=O)OC(C)(C)CN(C)CCC(c2ccccc2)c2ccccc2)C1c1cccc([N+](=O)[O-])c1` (centres unmarked) [Lercanidipine, methyl 1,1,N-trimethyl-N-(3,3-diphenylpropyl)-2-aminoethyl 1,4-dihydro-2,6-dimethyl-4-(3-nitrophenyl)pyridine-3,5-dicarboxylate]: the “isolated rat aorta response to high K+” value in the data set with isolated rat aorta is reported as “attenuated”.
On to “lercanidipine hydrochloride-terbutyl methyl ether”, for which the “temperature above which degradation was observed” value in data set [1] was “above 180 °C”.
